Laboratory results reported in patent publication US12552783B2, “Modulators of proteolysis and associated methods of use” (Arvinas Operations, Inc., priority 2018, dated 2026).

Molecular target: KRas (Homo sapiens, UniProt P01116, G12C)
Assay: KRas degradation in NCI-H2030 cells by Western blot, normalized to GAPDH (data of Table 14)
Assay type: cell-based
Set-up: host or cells: NCI-H2030
Settings: for Dmax: NCI-H2030
Outline: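 Cells serum-starved 24 h, then treated at 0.3, 1 and 3 μM in 0.1% DMSO, 24 h for VHL-based compounds and 72 h for others. Lysates (10 μg protein) immunoblotted; KRas normalized to GAPDH, degradation visually estimated below 25% or quantified versus DMSO lane, giving DC50 and DMax.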

Row | Compound | Percent Degradation at Indicated Concentration (μM) (H2030, 0.3 μM) | Percent Degradation at Indicated Concentration (μM) (H2030, 1 μM) | Percent Degradation at Indicated Concentration (μM) (H2030, 3 μM) | Dmax [%] | Percent Degradation at Indicated Concentration (μM) (H2030 cells, 0.3 μM) | Percent Degradation at Indicated Concentration (μM) (H2030 cells, 1 μM) | Percent Degradation at Indicated Concentration (μM) (H2030 cells, 3 μM)
1 | Cc1ncsc1-c1ccc([C@H](C)NC(=O)[C@@H]2C[C@@H](O)CN2C(=O)[C@@H](NC(=O)COCCOCCOCCOCC/C=C/C(=O)N2CCN(c3ncnc4c(F)c(-c5cc(O)cc6ccccc56)c(Cl)cc34)CC2)C(C)(C)C)cc1 [compound 375, (2S,4R)-1-((2S,E)-2-(tert-butyl)-20-(4-(6-chloro-8-fluoro-7-(3-hydroxynaphthalen-1-yl)quinazolin-4-yl)piperazin-1-yl)-4,20-dioxo-6,9,12,15-tetraoxa-3-azaicos-18-enoyl)-4-hydroxy-N-((S)-1-(4-(4-methylthiazol-5-yl)phenyl)ethyl)pyrrolidine-2-carboxamide] | C (Percent Degradation: C ≤ 35) | C (Percent Degradation: C ≤ 35) | C (Percent Degradation: C ≤ 35) | ≤ 35 |  |  | 
2 | COc1cc(-c2scnc2C)ccc1[C@H](C)NC(=O)[C@@H]1C[C@@H](O)CN1C(=O)[C@@H](c1cc(OCCOCCOCCOCCOCCN(C)C(=O)CCNc2nc(N3CCN(C(C)=O)CC3)c3cc(Cl)c(-c4cc(O)cc5ccccc45)c(F)c3n2)no1)C(C)C [compound 391, (2S,4R)-1-((2R)-2-(3-((18-((4-(4-acetylpiperazin-1-yl)-6-chloro-8-fluoro-7-(3-hydroxynaphthalen-1-yl)quinazolin-2-yl)amino)-15-methyl-16-oxo-3,6,9,12-tetraoxa-15-azaoctadecyl)oxy)isoxazol-5-yl)-3-methylbutanoyl)-4-hydroxy-N-((S)-1-(2-methoxy-4-(4-methylthiazol-5-yl)phenyl)ethyl)pyrrolidine-2-carboxamide] | C (Percent Degradation: C ≤ 35) | C (Percent Degradation: C ≤ 35) | C (Percent Degradation: C ≤ 35) | ≤ 35 |  |  | 
3 | C=CC(=O)N1CCN(c2nc(NCCCN(C)CCOCCOCCOCCOCC(=O)N[C@H](C(=O)N3C[C@H](O)C[C@H]3C(=O)N[C@@H](C)c3ccc(-c4scnc4C)cc3)C(C)(C)C)nc3c(F)c(-c4cc(O)cc5ccccc45)c(Cl)cc23)CC1 [compound 396, (2S,4R)-1-((2S)-21-((4-(4-acryloylpiperazin-1-yl)-6-chloro-8-fluoro-7-(3-hydroxynaphthalen-1-yl)quinazolin-2-yl)amino)-2-(tert-butyl)-18-methyl-4-oxo-6,9,12,15-tetraoxa-3,18-diazahenicosanoyl)-4-hydroxy-N-((S)-1-(4-(4-methylthiazol-5-yl)phenyl)ethyl)pyrrolidine-2-carboxamide] | C (Percent Degradation: C ≤ 35) | C (Percent Degradation: C ≤ 35) | C (Percent Degradation: C ≤ 35) | ≤ 35 |  |  | 
4 | C=CC(=O)N1CCN(c2nc(O[C@H](C)CN3CCC(OCCOCC(=O)N[C@H](C(=O)N4C[C@H](O)C[C@H]4C(=O)N[C@@H](C)c4ccc(-c5scnc5C)cc4)C(C)(C)C)CC3)nc3c2CCN(c2cc(O)cc4ccccc24)C3)CC1 [compound 406, (2S,4R)-1-((S)-2-(2-(2-((1-((R)-2-((4-(4-acryloylpiperazin-1-yl)-7-(3-hydroxynaphthalen-1-yl)-5,6,7,8-tetrahydropyrido[3,4-d]pyrimidin-2-yl)oxy)propyl)piperidin-4-yl)oxy)ethoxy)acetamido)-3,3-dimethylbutanoyl)-4-hydroxy-N-((S)-1-(4-(4-methylthiazol-5-yl)phenyl)ethyl)pyrrolidine-2-carboxamide] |  |  |  |  | C (Percent Degradation: C ≤ 35) | C (Percent Degradation: C ≤ 35) | C (Percent Degradation: C ≤ 35)
5 | C=CC(=O)N1CCN(c2nc(O[C@H](C)CN3CCC(OCCOCCOCC(=O)N[C@H](C(=O)N4C[C@H](O)C[C@H]4C(=O)N[C@@H](C)c4ccc(-c5scnc5C)cc4)C(C)(C)C)CC3)nc3c2CCN(c2cc(O)cc4ccccc24)C3)CC1 [compound 407, (2S,4R)-1-((S)-2-(2-(2-(2-((1-((R)-2-((4-(4-acryloylpiperazin-1-yl)-7-(3-hydroxynaphthalen-1-yl)-5,6,7,8-tetrahydropyrido[3,4-d]pyrimidin-2-yl)oxy)propyl)piperidin-4-yl)oxy)ethoxy)ethoxy)acetamido)-3,3-dimethylbutanoyl)-4-hydroxy-N-((S)-1-(4-(4-methylthiazol-5-yl)phenyl)ethyl)pyrrolidine-2-carboxamide] |  |  |  |  | C (Percent Degradation: C ≤ 35) | C (Percent Degradation: C ≤ 35) | C (Percent Degradation: C ≤ 35)
6 | C=CC(=O)N1CCN(c2nc(O[C@H](C)CN3CCC(OCCOCCOCCOCC(=O)N[C@H](C(=O)N4C[C@H](O)C[C@H]4C(=O)N[C@@H](C)c4ccc(-c5scnc5C)cc4)C(C)(C)C)CC3)nc3c2CCN(c2cc(O)cc4ccccc24)C3)CC1 [compound 408] |  |  |  |  | C (Percent Degradation: C ≤ 35) | C (Percent Degradation: C ≤ 35) | C (Percent Degradation: C ≤ 35)
7 | C=CC(=O)N1CCN(c2nc(O[C@H](C)CN3CCC(OCCOCCOCCOCCOCCOCC(=O)N[C@H](C(=O)N4C[C@H](O)C[C@H]4C(=O)N[C@@H](C)c4ccc(-c5scnc5C)cc4)C(C)(C)C)CC3)nc3c2CCN(c2cc(O)cc4ccccc24)C3)CC1 [compound 410, (2S,4R)-1-((S)-20-((1-((R)-2-((4-(4-acryloylpiperazin-1-yl)-7-(3-hydroxynaphthalen-1-yl)-5,6,7,8-tetrahydropyrido[3,4-d]pyrimidin-2-yl)oxy)propyl)piperidin-4-yl)oxy)-2-(tert-butyl)-4-oxo-6,9,12,15,18-pentaoxa-3-azaicosanoyl)-4-hydroxy-N-((S)-1-(4-(4-methylthiazol-5-yl)phenyl)ethyl)pyrrolidine-2-carboxamide] |  |  |  |  | C (Percent Degradation: C ≤ 35) | C (Percent Degradation: C ≤ 35) | C (Percent Degradation: C ≤ 35)
8 | C=CC(=O)N1CCN(c2nc(O[C@H](C)CN3CCC(OCCOCCNc4cccc5c4C(=O)N(C4CCC(=O)NC4=O)C5=O)CC3)nc3c2CCN(c2cc(O)cc4ccccc24)C3)CC1 (stereo partly drawn) [compound 412] |  |  |  |  | C (Percent Degradation: C ≤ 35) | C (Percent Degradation: C ≤ 35) | C (Percent Degradation: C ≤ 35)

The next lines start with the values.

Row | Percent Degradation at Indicated Concentration (μM) (H2030, 0.3 μM) | Percent Degradation at Indicated Concentration (μM) (H2030, 1 μM) | Percent Degradation at Indicated Concentration (μM) (H2030, 3 μM) | Dmax [%] | Percent Degradation at Indicated Concentration (μM) (H2030 cells, 0.3 μM) | Percent Degradation at Indicated Concentration (μM) (H2030 cells, 1 μM) | Percent Degradation at Indicated Concentration (μM) (H2030 cells, 3 μM) | Compound
9 |  |  |  |  | C (Percent Degradation: C ≤ 35) | C (Percent Degradation: C ≤ 35) | C (Percent Degradation: C ≤ 35) | C=CC(=O)N1CCN(c2nc(O[C@H](C)CN3CCC(OCCOCCOCCNc4cccc5c4C(=O)N(C4CCC(=O)NC4=O)C5=O)CC3)nc3c2CCN(c2cc(O)cc4ccccc24)C3)CC1 (stereo partly drawn) [compound 413, 4-((2-(2-(2-((1-((R)-2-((4-(4-acryloylpiperazin-1-yl)-7-(3-hydroxynaphthalen-1-yl)-5,6,7,8-tetrahydropyrido[3,4-d]pyrimidin-2-yl)oxy)propyl)piperidin-4-yl)oxy)ethoxy)ethoxy)ethyl)amino)-2-(2,6-dioxopiperidin-3-yl)isoindoline-1,3-dione]
10 |  |  |  |  | C (Percent Degradation: C ≤ 35) | C (Percent Degradation: C ≤ 35) | C (Percent Degradation: C ≤ 35) | C=CC(=O)N1CCN(c2nc(O[C@H](C)CN3CCC(OCCOCCOCCOCCNc4cccc5c4C(=O)N(C4CCC(=O)NC4=O)C5=O)CC3)nc3c2CCN(c2cc(O)cc4ccccc24)C3)CC1 (stereo partly drawn) [compound 414]
11 |  |  |  |  | C (Percent Degradation: C ≤ 35) | C (Percent Degradation: C ≤ 35) | C (Percent Degradation: C ≤ 35) | C=CC(=O)N1CCN(c2nc(O[C@H](C)CN3CCC(OCCOc4ccc5c(c4)C(=O)N(C4CCC(=O)NC4=O)C5=O)CC3)nc3c2CCN(c2cc(O)cc4ccccc24)C3)CC1 (stereo partly drawn) [compound 416, 5-(2-((1-((R)-2-((4-(4-acryloylpiperazin-1-yl)-7-(3-hydroxynaphthalen-1-yl)-5,6,7,8-tetrahydropyrido[3,4-d]pyrimidin-2-yl)oxy)propyl)piperidin-4-yl)oxy)ethoxy)-2-(2,6-dioxopiperidin-3-yl)isoindoline-1,3-dione]
12 |  |  |  |  | C (Percent Degradation: C ≤ 35) | C (Percent Degradation: C ≤ 35) | C (Percent Degradation: C ≤ 35) | C=CC(=O)N1CCN(c2nc(O[C@H](C)CN3CCC(OCCOCCOCCOc4ccc5c(c4)C(=O)N(C4CCC(=O)NC4=O)C5=O)CC3)nc3c2CCN(c2cc(O)cc4ccccc24)C3)CC1 (stereo partly drawn) [compound 418, 5-(2-(2-(2-((1-((R)-2-((4-(4-acryloylpiperazin-1-yl)-7-(3-hydroxynaphthalen-1-yl)-5,6,7,8-tetrahydropyrido[3,4-d]pyrimidin-2-yl)oxy)propyl)piperidin-4-yl)oxy)ethoxy)ethoxy)ethoxy)-2-(2,6-dioxopiperidin-3-yl)isoindoline-1,3-dione]
13 |  |  |  |  | C (Percent Degradation: C ≤ 35) | C (Percent Degradation: C ≤ 35) | C (Percent Degradation: C ≤ 35) | C=CC(=O)N1CCN(c2nc(O[C@H](C)CN3CCC(OCCOCCOCCOCCOc4ccc5c(c4)C(=O)N(C4CCC(=O)NC4=O)C5=O)CC3)nc3c2CCN(c2cc(O)cc4ccccc24)C3)CC1 (stereo partly drawn) [compound 419, 5-(2-(2-(2-(2-((1-((R)-2-((4-(4-acryloylpiperazin-1-yl)-7-(3-hydroxynaphthalen-1-yl)-5,6,7,8-tetrahydropyrido[3,4-d]pyrimidin-2-yl)oxy)propyl)piperidin-4-yl)oxy)ethoxy)ethoxy)ethoxy)ethoxy)-2-(2,6-dioxopiperidin-3-yl)isoindoline-1,3-dione]
